According to BindingDB's records for patent US20240010684 (Bayer Aktiengesellschaft, 2024):
Where a SMILES comes first, the peptide text is derived from it. Bridges are numbered along the chain shown (N, C = ends). [ ]: non-standard residue; d: D form. Oic = O=C(O)[C@@H]1C[C@@H]2CCCC[C@@H]2N1; Pen = CC(C)(S)[C@H](N)C(=O)O

How the values were obtained:
[1] = biological target: T1, Mannan-binding lectin serine protease 1 (Homo sapiens, UniProt P48740); test: Biochemical Human MASP1 Assay
T1 sequence (P48740 whole entry): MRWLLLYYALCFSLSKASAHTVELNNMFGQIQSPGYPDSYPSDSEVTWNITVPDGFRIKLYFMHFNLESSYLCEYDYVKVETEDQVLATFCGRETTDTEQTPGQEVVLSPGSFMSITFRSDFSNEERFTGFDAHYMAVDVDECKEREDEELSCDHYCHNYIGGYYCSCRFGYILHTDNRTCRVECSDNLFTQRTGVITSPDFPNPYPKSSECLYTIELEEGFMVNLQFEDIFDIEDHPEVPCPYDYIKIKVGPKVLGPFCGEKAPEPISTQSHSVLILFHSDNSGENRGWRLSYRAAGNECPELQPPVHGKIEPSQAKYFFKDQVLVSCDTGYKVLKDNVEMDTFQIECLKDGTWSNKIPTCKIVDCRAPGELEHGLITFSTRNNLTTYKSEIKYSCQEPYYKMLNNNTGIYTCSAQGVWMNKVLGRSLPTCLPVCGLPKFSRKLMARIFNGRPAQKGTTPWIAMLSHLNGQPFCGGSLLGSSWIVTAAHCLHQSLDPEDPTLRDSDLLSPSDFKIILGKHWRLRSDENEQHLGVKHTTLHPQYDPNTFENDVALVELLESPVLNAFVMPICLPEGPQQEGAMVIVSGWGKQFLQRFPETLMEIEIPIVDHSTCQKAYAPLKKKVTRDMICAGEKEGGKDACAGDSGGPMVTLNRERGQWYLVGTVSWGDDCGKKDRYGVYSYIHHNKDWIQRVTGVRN
Protocol: Recombinant human MASP1 enzyme produced in the HEK 293 cells was diluted in the reaction buffer (50 mM HEPES pH 8,0; 100 mM NaCl; 0,01% CHAPS; 0.5 mM Gluthathione) to the concentration of 20 nM and 25 μl was transferred into each single well of 384-well white microtiter plate (Greiner Bio One 781075). 1 μl of the inhibitor compound solution (dissolved in DMSO, at the corresponding concentration) or pure DMSO as a control was added to the same wells. The enzymatic reaction was initiated by addition of 25 μl of 20 μM solution of the FRET substrate ABZ-[…]-Lys (Dnp)-NH2; (ABZ-2-aminobenzoyl; DNP 2,4-dinitrophenyl; custom synthesis by Jerini Peptide Technologies, Berlin) in the reaction buffer. The microtiter plate was incubated for 60-120 min at the temperature of 32 C. The increase of fluorescence intensity was measured in appropriate fluorescence plate reader (e.g. TECAN Ultra) using excitation wavelength of 320 nm and emission wavelength of 420 nm. IC50 values were calculated from percentage of inhibition of human MASP1 activity as a function of test compound concentration.

[2] = biological target: Mannan-binding lectin serine protease 2 (Homo sapiens, UniProt O00187); test: Biochemical Human MASP2 Assay
Mannan-binding lectin serine protease 2 (Homo sapiens, UniProt O00187), sequence (O00187 16-444 limits assumed): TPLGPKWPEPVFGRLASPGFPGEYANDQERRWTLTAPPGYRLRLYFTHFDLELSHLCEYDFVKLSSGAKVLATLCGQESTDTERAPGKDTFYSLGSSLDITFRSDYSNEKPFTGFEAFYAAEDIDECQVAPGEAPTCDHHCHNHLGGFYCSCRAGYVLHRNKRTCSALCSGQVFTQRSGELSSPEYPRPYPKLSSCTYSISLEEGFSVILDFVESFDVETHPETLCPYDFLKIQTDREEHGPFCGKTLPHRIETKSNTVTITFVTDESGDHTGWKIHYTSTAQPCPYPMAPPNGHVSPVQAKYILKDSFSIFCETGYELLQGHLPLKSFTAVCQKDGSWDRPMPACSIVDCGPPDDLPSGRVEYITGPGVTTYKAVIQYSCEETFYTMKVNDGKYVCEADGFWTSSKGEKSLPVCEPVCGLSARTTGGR
Mannan-binding lectin serine protease 2 (Homo sapiens, UniProt O00187), sequence (O00187 445-686 limits assumed): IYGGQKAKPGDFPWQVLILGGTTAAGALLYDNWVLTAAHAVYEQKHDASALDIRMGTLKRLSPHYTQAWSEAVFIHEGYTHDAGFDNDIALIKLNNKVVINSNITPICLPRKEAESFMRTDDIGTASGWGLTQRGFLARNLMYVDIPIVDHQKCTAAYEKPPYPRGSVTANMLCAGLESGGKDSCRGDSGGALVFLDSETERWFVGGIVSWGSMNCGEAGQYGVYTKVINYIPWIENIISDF
Protocol: Recombinant human MASP2 enzyme produced in the HEK 293 cells was diluted in the reaction buffer (50 mM HEPES pH 8,0; 100 mM NaCl; 0,01% CHAPS; 0.5 mM Gluthathione) to the concentration of 20 nM and 25 μl was transferred into each single well of 384-well white microtiter plate (Greiner Bio One 781075). 1 μl of the inhibitor compound solution (dissolved in DMSO, at the corresponding concentration) or pure DMSO as a control was added to the same wells. The enzymatic reaction was initiated by addition of 25 μl of 60 μM solution of the FRET substrate DABCYL-[…]-Glu(EDANS) NH2; (Dabcyl-4-((4-(dimethylamino)phenyl)azo)benzoic acid; Edans-5-[(2-Aminoethyl) amino]naphthalene-1-sulfonyl; custom synthesis by Jerini Peptide Technologies, Berlin) in the reaction buffer. The microtiter plate was incubated for 60-120 min at the temperature of 32 C.

[3] = biological target: T2, Mannan-binding lectin serine protease 1 (Rattus norvegicus, UniProt Q8CHN8); test: Biochemical Rat MASP1 Assay
T2 sequence (Q8CHN8 whole entry): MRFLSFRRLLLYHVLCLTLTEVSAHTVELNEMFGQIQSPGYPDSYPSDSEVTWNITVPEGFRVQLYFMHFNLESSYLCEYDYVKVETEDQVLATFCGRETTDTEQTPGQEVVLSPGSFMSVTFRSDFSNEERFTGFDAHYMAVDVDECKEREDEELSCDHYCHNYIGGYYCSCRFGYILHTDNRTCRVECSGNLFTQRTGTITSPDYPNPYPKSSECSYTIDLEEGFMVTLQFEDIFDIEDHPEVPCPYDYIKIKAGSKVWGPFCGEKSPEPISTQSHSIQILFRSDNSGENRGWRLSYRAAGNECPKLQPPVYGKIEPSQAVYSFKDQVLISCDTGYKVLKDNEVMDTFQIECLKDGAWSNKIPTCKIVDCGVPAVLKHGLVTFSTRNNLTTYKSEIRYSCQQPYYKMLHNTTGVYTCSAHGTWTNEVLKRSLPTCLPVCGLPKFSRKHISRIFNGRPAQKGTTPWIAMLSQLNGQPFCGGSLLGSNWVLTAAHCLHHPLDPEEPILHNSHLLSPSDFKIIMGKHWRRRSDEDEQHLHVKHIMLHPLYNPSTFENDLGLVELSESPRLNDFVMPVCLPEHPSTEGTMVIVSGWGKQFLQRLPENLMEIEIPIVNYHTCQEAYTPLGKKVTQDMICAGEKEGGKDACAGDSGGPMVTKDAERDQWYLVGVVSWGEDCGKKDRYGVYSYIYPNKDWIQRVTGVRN
Protocol: Recombinant […] produced in the HEK 293 cells was diluted in the reaction buffer (50 mM HEPES pH 8,0; 100 mM NaCl; 0,01% CHAPS; 0.5 mM Gluthathione) to the concentration of 4 nM and 25 μl was transferred into each single well of 384-well white microtiter plate (Greiner Bio One 781075). 1 μl of the inhibitor compound solution (dissolved in DMSO, at the corresponding concentration) or pure DMSO as a control was added to the same wells. The enzymatic reaction was initiated by addition of 25 μl of 40 μM solution of the FRET substrate Dabcyl-[…]-Glu(Edans)-NH2; (Dabcyl-4-((4-(dimethylamino)phenyl)azo)benzoic acid; Edans-5-[(2-Aminoethyl) amino]naphthalene-1-sulfonyl; custom synthesis by Jerini Peptide Technologies, Berlin) in the reaction buffer. The microtiter plate was incubated for 60-120 min at the temperature of 32 C. The increase of fluorescence intensity was measured in appropriate fluorescence plate reader (e.g. TECAN Ultra) using excitation wavelength of 340 nm and emission wavelength of 490 nm. IC50 values were calculated from percentage of inhibition of rat […] activity as a function of test compound concentration.

[4] = biological target: Mannan-binding lectin serine protease 2 (Rattus norvegicus, UniProt Q9JJS8); test: Biochemical Rat MASP2 Assay
Mannan-binding lectin serine protease 2 (Rattus norvegicus, UniProt Q9JJS8), sequence (Q9JJS8 20-443 limits assumed): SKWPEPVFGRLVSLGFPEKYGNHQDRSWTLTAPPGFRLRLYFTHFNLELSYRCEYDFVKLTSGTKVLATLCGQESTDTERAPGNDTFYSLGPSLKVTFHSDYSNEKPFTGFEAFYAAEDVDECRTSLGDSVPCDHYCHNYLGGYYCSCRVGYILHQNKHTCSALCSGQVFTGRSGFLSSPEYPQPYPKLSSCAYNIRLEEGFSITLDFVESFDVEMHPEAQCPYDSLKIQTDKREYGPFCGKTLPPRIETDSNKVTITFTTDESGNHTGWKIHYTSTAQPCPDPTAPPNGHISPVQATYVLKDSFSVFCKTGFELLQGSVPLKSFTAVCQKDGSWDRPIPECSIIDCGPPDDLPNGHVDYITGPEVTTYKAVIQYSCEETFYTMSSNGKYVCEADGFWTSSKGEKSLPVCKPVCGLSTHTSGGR
Mannan-binding lectin serine protease 2 (Rattus norvegicus, UniProt Q9JJS8), sequence (Q9JJS8 444-685 limits assumed): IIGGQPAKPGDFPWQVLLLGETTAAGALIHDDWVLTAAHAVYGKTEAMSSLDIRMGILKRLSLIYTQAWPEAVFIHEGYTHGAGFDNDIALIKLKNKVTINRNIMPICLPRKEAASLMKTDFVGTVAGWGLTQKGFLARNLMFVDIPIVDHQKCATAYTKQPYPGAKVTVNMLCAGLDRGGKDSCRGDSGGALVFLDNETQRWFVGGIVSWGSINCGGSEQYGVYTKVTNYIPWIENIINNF
Protocol: 1 μl of the inhibitor compound solution (dissolved in DMSO, at the corresponding concentration) or pure DMSO as a control was added to the same wells. The enzymatic reaction was initiated by addition of 25 μl of 30 μM solution of the FRET substrate Abz-IEGRTSED-(Lys)Dnp-NH2; (ABZ-2-aminobenzoyl; DNP-2,4-dinitrophenyl; custom synthesis by Jerini Peptide Technologies, Berlin) in the reaction buffer. The microtiter plate was incubated for 60-120 min at the temperature of 32 C. The increase of fluorescence intensity was measured in appropriate fluorescence plate reader (e.g. TECAN Ultra) using excitation wavelength of 320 nm and emission wavelength of 420 nm. IC50 values were calculated from percentage of inhibition of rat […] activity as a function of test compound concentration.

CC[C@H](C)[C@@H]1NC(=O)CNC(=O)CNC(=O)[C@H](C)NC(=O)[C@@H](CC(=O)O)NC(=O)[C@@H]2CCCN2C(=O)[C@H]([C@@H](C)CC)NC(=O)[C@H]2NC(=O)[C@H]([C@@H](C)CC)NC(=O)[C@@H]3C[C@@H]4CCCC[C@@H]4N3C(=O)[C@@H]3CCCN3C(=O)[C@H](CC(C)C)NC(=O)[C@H](CO)NC(=O)[C@H](CCCNC(=N)N)NC(=O)[C@H](CO)NC(=O)[C@H](CSSC2(C)C)NC1=O [US20240010684, Ex. No 98] (cyclo(AGGICSRSLP[Oic]I[Pen]IP[dD]); disulfide 5-13)
IC50 [1]: 19 nM
IC50 [2]: 160 nM
IC50 [3]: 170 nM

CC[C@H](C)[C@@H]1NC(=O)[C@@H]2CCCN2C(=O)[C@@H]2CCCN2C(=O)[C@H]([C@@H](C)CC)NC(=O)[C@H](CO)NC(=O)[C@H](CCCCN)NC(=O)[C@H]([C@@H](C)O)NC(=O)[C@@H]2CSSC[C@H](NC1=O)C(=O)N[C@@H](Cc1ccccc1)C(=O)N1CCC[C@H]1C(=O)N[C@@H](CC(=O)O)C(=O)NCC(=O)N[C@@H](CCCNC(=N)N)C(=O)N2 [US20240010684, Ref. No 2]
IC50 [1]: > 3000 nM
IC50 [2]: > 3000 nM
IC50 [4]: 1000 nM

CC[C@H](C)[C@@H]1NC(=O)CNC(=O)CNC(=O)[C@H](C)NC(=O)[C@H](CC(=O)O)NC(=O)[C@@H]2CCCN2C(=O)[C@H]([C@@H](C)CC)NC(=O)[C@H]2NC(=O)[C@H]([C@@H](C)CC)NC(=O)[C@@H]3C[C@@H]4CCCC[C@@H]4N3C(=O)[C@@H]3CCCN3C(=O)[C@H](CC(C)C)NC(=O)[C@H](CO)NC(=O)[C@H](CCCNC(=N)N)NC(=O)[C@H](CO)NC(=O)[C@H](CSSC2(C)C)NC1=O [US20240010684, Ex. No 92] (cyclo(AGGICSRSLP[Oic]I[Pen]IPD); disulfide 5-13)
IC50 [1]: 8.4 nM
IC50 [2]: 77 nM
IC50 [3]: 170 nM
IC50 [4]: 41 nM
